Test results as given in PubChem BioAssay AID743016 (Vanderbilt Specialized Chemistry Center, 2013).

The compounds below were run against Mas-related G-protein coupled receptor member X1 (Homo sapiens) (UniProt Q96LB2) (assay: enhancers of MrgX1 receptor signaling – cell-based, HEK293, calcium flux, BAM8-22, dose response (AID 743016)). Conditions: HEK293-MrgX1, Fluo4 calcium flux, BAM8-22 potentiation; with BAM 0.1 µM;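 active means compounds raising MrgX1 calcium signal by over 3 SD of library plate-corrected scores; inactive means the rest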.
Sequence of Mas-related G-protein coupled receptor member X1 (Homo sapiens) (Q96LB2 whole entry, looked up): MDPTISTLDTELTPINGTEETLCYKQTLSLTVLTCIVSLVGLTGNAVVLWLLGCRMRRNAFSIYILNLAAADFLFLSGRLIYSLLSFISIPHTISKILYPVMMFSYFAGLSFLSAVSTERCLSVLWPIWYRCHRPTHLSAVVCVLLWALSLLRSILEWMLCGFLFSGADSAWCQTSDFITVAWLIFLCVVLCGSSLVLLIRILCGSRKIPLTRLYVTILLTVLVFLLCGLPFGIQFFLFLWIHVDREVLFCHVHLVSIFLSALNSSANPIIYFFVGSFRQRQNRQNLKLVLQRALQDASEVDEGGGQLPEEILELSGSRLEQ

EC50, active:
CCOc1ccccc1NC(=O)c1ccccc1NS(=O)(=O)CCCl 380 nM
CCOc1ccccc1NC(=O)c1ccccc1NS(C)(=O)=O 1910 nM
COc1ccc(NC(=O)c2ccccc2NS(C)(=O)=O)c(OC)c1 150 nM
CCOc1ccccc1NC(=O)c1ccccc1NS(=O)(=O)C1CC1 190 nM
COc1ccc(NC(=O)c2ccccc2NS(=O)(=O)c2cccnc2Cl)c(OC)c1 2910 nM
CCOc1ccccc1NC(=O)c1ccccc1N(C)S(C)(=O)=O 1390 nM
COc1ccc(Cl)cc1NC(=O)c1ccccc1NS(C)(=O)=O 1010 nM
COc1ccccc1NC(=O)c1ccccc1NS(C)(=O)=O 3060 nM
CCOc1ccccc1NC(=O)c1ccccc1NS(=O)(=O)C(C)C 1820 nM
CCOc1ccccc1NC(=O)c1ccccc1NS(=O)(=O)CC 910 nM
CCOc1ccccc1NC(=O)c1ccccc1NS(=O)(=O)CC1CC1 4470 nM
CSc1ccccc1NC(=O)c1ccccc1N(C)S(C)(=O)=O 500 nM
CSc1ccccc1NC(=O)c1ccccc1NS(C)(=O)=O 420 nM
COC(=O)c1ccccc1NC(=O)c1ccccc1N(C)S(C)(=O)=O 1570 nM
COc1ccc(C)cc1NC(=O)c1ccccc1NS(C)(=O)=O 2340 nM
